The source made the active and inactive calls. The calls are words filed in the database; no cut-off is given here.
Columns and labels:
[1] = target: T1, Protein cereblon/Histone-lysine N-methyltransferase EHMT2 (Homo sapiens, UniProt Q96KQ7+Q96SW2); test: PROTAC activity at CRBN/G9a in human PANC-1 cells assessed as induction of G9a degradation at 1 uM by Western blot analysis; type: cell-based
[2] = target: T2, Histone-lysine N-methyltransferase EHMT2 (Homo sapiens) (UniProt Q96KQ7); test: Inhibition of N-terminal GST tagged human recombinant G9a (785 to 1210 residues) expressed in Escherichia coli using H3(1 to 21)K9me1 and SAM as substrates incubated for 1 hr by HTRF assay
T2 sequence (whole entry): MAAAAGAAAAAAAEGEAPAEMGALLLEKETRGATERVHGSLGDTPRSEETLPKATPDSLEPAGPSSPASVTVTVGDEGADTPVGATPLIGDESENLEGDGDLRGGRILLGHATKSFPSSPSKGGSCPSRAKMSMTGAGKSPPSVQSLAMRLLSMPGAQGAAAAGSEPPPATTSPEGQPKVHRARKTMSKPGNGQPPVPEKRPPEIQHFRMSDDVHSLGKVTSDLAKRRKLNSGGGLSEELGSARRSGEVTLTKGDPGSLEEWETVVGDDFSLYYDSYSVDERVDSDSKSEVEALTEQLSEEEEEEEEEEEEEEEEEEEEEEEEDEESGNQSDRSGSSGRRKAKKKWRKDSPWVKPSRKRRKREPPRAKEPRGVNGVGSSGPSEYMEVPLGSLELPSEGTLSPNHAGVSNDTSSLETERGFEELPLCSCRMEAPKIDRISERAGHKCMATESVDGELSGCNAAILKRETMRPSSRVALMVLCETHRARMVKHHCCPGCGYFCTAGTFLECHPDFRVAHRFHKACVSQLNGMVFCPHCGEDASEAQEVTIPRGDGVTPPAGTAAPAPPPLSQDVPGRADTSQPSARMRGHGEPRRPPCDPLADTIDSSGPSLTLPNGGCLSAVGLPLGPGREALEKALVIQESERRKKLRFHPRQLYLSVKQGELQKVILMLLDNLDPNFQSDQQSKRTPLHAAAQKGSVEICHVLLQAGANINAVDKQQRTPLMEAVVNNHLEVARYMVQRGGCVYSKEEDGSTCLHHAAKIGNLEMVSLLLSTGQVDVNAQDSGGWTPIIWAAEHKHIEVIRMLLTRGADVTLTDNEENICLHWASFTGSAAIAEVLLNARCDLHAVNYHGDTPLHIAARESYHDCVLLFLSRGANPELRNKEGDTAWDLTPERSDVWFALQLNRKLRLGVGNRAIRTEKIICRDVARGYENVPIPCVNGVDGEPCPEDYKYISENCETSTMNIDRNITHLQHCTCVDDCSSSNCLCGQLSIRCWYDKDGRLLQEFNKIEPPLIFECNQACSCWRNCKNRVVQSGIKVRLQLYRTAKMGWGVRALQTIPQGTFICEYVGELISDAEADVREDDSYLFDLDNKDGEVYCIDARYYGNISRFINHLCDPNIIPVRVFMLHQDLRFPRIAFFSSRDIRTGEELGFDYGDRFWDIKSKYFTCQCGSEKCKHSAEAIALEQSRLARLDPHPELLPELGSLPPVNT

[3] = target: T2, Histone-lysine N-methyltransferase EHMT2 (Homo sapiens); test: Induction of G9a degradation in human PANC-1 cells assessed as reduction in G9a protein level at 10 uM by Western blot analysis; type: cell-based
[4] = target: T2, Histone-lysine N-methyltransferase EHMT2 (Homo sapiens); test: Induction of G9a degradation in human PANC-1 cells assessed as reduction in G9a protein level at 10 uM in presence of 1 uM UNC0638 by Western blot analysis; type: cell-based
[5] = target: T1, Protein cereblon/Histone-lysine N-methyltransferase EHMT2; test: PROTAC activity at CRBN/G9a in human PANC-1 cells assessed as induction of G9a degradation at 0.1 uM measured after 24 hrs by Western blot analysis; type: cell-based
[6] = target: T1, Protein cereblon/Histone-lysine N-methyltransferase EHMT2; test: PROTAC activity at CRBN/G9a in human PANC-1 cells assessed as induction of G9a degradation at 0.1 to 1 uM measured after 24 hrs by Western blot analysis; type: cell-based; settings: dose 0.1-1 µM
[7] = target: T2, Histone-lysine N-methyltransferase EHMT2 (Homo sapiens); test: Induction of G9a degradation in human PANC-1 cells assessed as reduction in G9a protein level at 50 uM measured at 16 hrs by Western blot analysis; type: cell-based

T1 sequence (Q96SW2 whole entry partner, one chain of several, the tested form may be a part): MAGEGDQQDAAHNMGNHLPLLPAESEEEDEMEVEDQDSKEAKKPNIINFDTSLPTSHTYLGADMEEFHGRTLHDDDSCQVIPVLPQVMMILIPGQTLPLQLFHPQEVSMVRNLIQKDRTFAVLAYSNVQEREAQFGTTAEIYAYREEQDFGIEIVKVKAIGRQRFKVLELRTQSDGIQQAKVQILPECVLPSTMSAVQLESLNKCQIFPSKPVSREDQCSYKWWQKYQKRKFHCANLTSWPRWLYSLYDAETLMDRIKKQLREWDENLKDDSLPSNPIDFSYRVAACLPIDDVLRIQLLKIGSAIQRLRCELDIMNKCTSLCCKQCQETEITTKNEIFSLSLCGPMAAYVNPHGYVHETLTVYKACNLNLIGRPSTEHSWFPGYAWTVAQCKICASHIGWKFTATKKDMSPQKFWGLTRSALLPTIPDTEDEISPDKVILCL

COc1cc2c(NC3CCN(CCCC(=O)NCCCCCCCCNc4cccc5c4C(=O)N(C4CCC(=O)NC4=O)C5=O)CC3)nc(C3CCCCC3)nc2cc1OCCCN1CCC(F)(F)CC1 (stereo not given)
Activity [1]: inactive

COc1cc2c(NC3CCN(CCCC(=O)NCCOCCOCCNc4cccc5c4C(=O)N(C4CCC(=O)NC4=O)C5=O)CC3)nc(C3CCCCC3)nc2cc1OCCCN1CCCC1 (stereo not given)
inhibition [2]: Active

COc1cc2c(NC3CCN(CCCC(=O)NCCCCCCCCOc4cccc5c4C(=O)N(C4CCC(=O)NC4=O)C5=O)CC3)nc(C3CCCCC3)nc2cc1OCCCN1CCCC1 (stereo not given)
inhibition [2]: Active

O=C1CCC(N2C(=O)c3ccccc3C2=O)C(=O)N1 (stereo not given)
Activity [3]: inactive
Activity [4]: inactive

COc1cc2c(NC3CCN(CCCC(=O)NCCCCCCCCNc4ccc5c(c4)C(=O)N(C4CCC(=O)NC4=O)C5=O)CC3)nc(C3CCCCC3)nc2cc1OCCCN1CCCC1 (stereo not given)
inhibition [2]: Active

COc1cc2c(NC3CCN(CCCC(=O)NCCCCCCCCCNc4cccc5c4C(=O)N(C4CCC(=O)NC4=O)C5=O)CC3)nc(C3CCCCC3)nc2cc1OCCCN1CCCC1 (stereo not given)
Activity [5]: inactive
inhibition [2]: Active

COc1cc2c(NC3CCN(CCCC(=O)NCCCCCCCCCCNc4cccc5c4C(=O)N(C4CCC(=O)NC4=O)C5=O)CC3)nc(C3CCCCC3)nc2cc1OCCCN1CCCC1 (stereo not given)
Activity [5]: inactive
inhibition [2]: Active

COc1cc2c(NC3CCN(C(=O)CCC(=O)NCCCCCCCCNc4cccc5c4C(=O)N(C4CCC(=O)NC4=O)C5=O)CC3)nc(C3CCCCC3)nc2cc1OCCCN1CCCC1 (stereo not given)
Activity [6]: inactive

COc1cc2c(NC3CCN(CCCC(=O)NCCCCCCCCNc4cccc5c4C(=O)N(C4CCC(=O)N(C)C4=O)C5=O)CC3)nc(C3CCCCC3)nc2cc1OCCCN1CCCC1 (stereo not given)
Activity [1]: inactive

N=C(NCCCCCCNC(=N)NC(=N)Nc1ccc(Cl)cc1)NC(=N)Nc1ccc(Cl)cc1
Activity [7]: Active

COc1cc2c(NC3CCN(CCCC(=O)NCCCCCCCNc4cccc5c4C(=O)N(C4CCC(=O)NC4=O)C5=O)CC3)nc(C3CCCCC3)nc2cc1OCCCN1CCCC1 (stereo not given)
Activity [5]: inactive
inhibition [2]: Active
